Laboratory results reported in US5229288A, “Cytotoxicity test method” (priority 1990, dated 1993).
Numbered stars: 1 amine (or outer) side, 2 acyl side, 3 side chain; on linkers, the order of the positions; unused ones are H or OH. Bridge positions count the residues as written; N and C are the ends. Square brackets hold non-standard residues; d marks the D form. Peptide text beside a SMILES is read from it. I, II: the chains in the order shown. Actinocin(9to1) = Cc1c2oc3c(C)ccc(C(=O)[*:1])c3nc-2c(C(=O)[*:2])c(N)c1=O; NMeV = CN[C@H](C(=O)O)C(C)C; Sar = CNCC(=O)O

Columns and labels:
[1] = in vitro; settings: human, skin fibroblasts
Protocol: (§1) N-Isopropylacrylamide monomer (here "NIPAAm", a product of Eastman Kodak Co.) 50 g was dissolved in 500 ml benzene. 2,2'-Azobisisobutyronitrile (here "AIBN") 0.2 g was used as the polymerization initiator. Polymerization was carried out at 60° C. for 12 hours in a stream of nitrogen gas with constant agitation. The polymer thus obtained was precipitated in benzene and after decantation the precipitates formed were dissolved in tetrahydrofuran and purified with ethyl ether. […] This mixed solution was poured on the bottom of a commercially available plastic culture dish (Falcon, 35 mm), and it was air-dried aseptically in a clean bench at about 10° C. […] Fibroblasts derived from human skin were suspended in Dulbecco's modified Eagle medium ("DMEM", a product of GIBCO, containing 10% (w/v) calf serum) (cell concentration in the suspension: about 2×10^5 cells/ml). Two milliliters of this cell suspension was incubated at 37° C., and then it was poured in the coated dish which was pre-incubated at 37° C. It was cultured at 37° C. for 3 days in an air/5 volume% CO2 gas incubator. After 3 days at which point the cultured cells covered the surface of the bottom of the dish completely, the dish was taken out from the 37° C. incubator and left to stand at 4° C. on ice. After the cell sheet was completely detached from the surface of the bottom of the dish, the old medium was discarded and the sheet was washed twice with fresh medium at 4° C. to remove the dissolved polymer and the collagen.
(§2) During the shrinking process, the cell aggregate was examined at different times by a phase contrast microscope. Size (average values of longer diameter and shorter diameter) of the cell aggregate was measured, and % shrinkage which is a relative value considering the diameter of the cell sheet immediately after the detachment as 100% was calculated, and the results were plotted against time as shown in FIG. 1.
(§3) After a cell sheet was detached and transferred onto a hydrophobic dish in the same manner as in the Control Example, cycloheximide (here "CH") was added to the culture medium for the cell sheet to bring the concentration to 0.3 and 3μg/ml of medium, respectively. The shrinkage process of the detached cell sheet was examined by the phase contrast microscopy while the cell sheet was cultured in the culture medium containing CH in the hydrophobic dish. […] At the second day after detachment, as shown in FIG. 2A by an arrow sign, the added CH was completely removed by washing the cell aggregate with fresh culture medium and then transferring it into the vessel containing fresh culture medium.
(§4) Twelve hours before a cell sheet was detached from the cell culture substrate and transferred onto a hydrophobic dish in the same manner as in Control Example, actinomycin D (here "AD") was added to the culture medium to bring the concentration to 0.003 and 0.03 μg/ml of medium, respectively. Then the shrinkage process of the detached cell sheet was examined by phase contrast microscopy while the detached cell sheet was cultured in the culture medium containing 0.003 and 0.03 μg/ml (medium) of AD, respectively, in the hydrophobic dish.

[2] = tested on: fibroblasts derived from human skin; assay: shrinkage of detached cell sheet to spherical cell aggregate (cytotoxicity test method of the invention), phase contrast microscopy
Protocol: as §1, §2, §3, §4

[3] = conventional monolayer culture on plastic tissue culture dish, morphological change under phase contrast microscope (Comparative Example); type: cell-based, human; settings: human, skin fibroblasts; conventional monolayer culture; read-out: concentration for the detection of cytotoxicity by conventional monolayer culture
Protocol: (§5) The fibroblasts derived from human skin as used in Example 1 were cultured for 3 days on a plastic tissue culture dish (Falcon, 35 mm), and then cycloheximide and actinomycin D were added, respectively, in such an amount that the concentration of the medium would be 10 μg/ml, and the morphological change of the cells was examined under a phase contrast microscope. […] In contrast, the concentration for the detection of cytotoxicity by the conventional monolayer culture such as shown in this Comparative Example was higher than 10 μg/ml.

[4] = tested on: fibroblasts derived from human skin; assay: as above; type: cell-based; settings: 10 μg/ml, monolayer cultured for 3 days before addition
Protocol: as §5

[5] = AD more than 0.03 μg/ml, added twelve hours before detachment, FIG. 2B
[6] = CH more than 3 μg/ml, added after detachment and transfer, FIG. 2A

Row | SMILES | MCC [1] | formation of spherical cell aggregate [2, 5] | shrinkage behavior of phase II (0.5 th to second day after detachment) [2, 5] | shrinkage after removal of AD (reversibility) ([2]; AD removed by washing at second day after detachment, FIG. 2B) | concentration of AD which inhibits phase II relative to that of CH ([2]; ratio AD to CH) | MCC [3] | morphological change of the cells [4] | formation of spherical cell aggregate [2, 6] | shrinkage behavior of phase II (0.5 th to second day after detachment) [2, 6] | shrinkage after removal of CH (reversibility) ([2]; CH removed by washing at second day after detachment, FIG. 2A)
1 | Cc1c2oc3c(C)ccc(C(=O)N[C@@H]4C(=O)N[C@H](C(C)C)C(=O)N5CCC[C@H]5C(=O)N(C)CC(=O)N(C)[C@@H](C(C)C)C(=O)O[C@@H]4C)c3nc-2c(C(=O)N[C@@H]2C(=O)N[C@H](C(C)C)C(=O)N3CCC[C@H]3C(=O)N(C)CC(=O)N(C)[C@@H](C(C)C)C(=O)O[C@@H]2C)c(N)c1=O [AD, actinomycin D] (I: T[dV]P[Sar][NMeV] / II: T[dV]P[Sar][NMeV]; ester I:1-I:C, II:1-II:C; linker I:N-II:N via Actinocin(9to1)) | 0.03 µg/mL | no formation of any spherical cell aggregate was observed | significantly interrupted | the shrinkage started again | about 1/100 | > 10 µg/mL | No morphological change was observed at all | – | – | –
2 | C[C@@H]1C[C@@H]([C@H](O)CC2CC(=O)NC(=O)C2)C(=O)[C@@H](C)C1 [CH, cycloheximide] | 3 µg/mL | – | – | – | – | > 10 µg/mL | No morphological change was observed at all | no formation of any spherical cell aggregate was observed | completely interrupted | the shrinkage started again
